According to PubChem BioAssay (NCI):
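Results reflect a 48-hour exposure of cells in 96-well plates to compound at five concentrations. At the TGI there is no net growth.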

System: P388/ADR leukemia
Experiment: NCI tumour cell line growth inhibition, 48 h

CNC(=O)OCc1nc(SC2CCCCO2)n(C)c1COC(=O)NC (stereo unspecified) gave a TGI of over 100 µM.
